Source: US20230096766A1, “AMINO ACID HAVING FUNCTIONAL GROUP CAPABLE OF INTERMOLECULAR HYDROGEN BONDING, PEPTIDE COMPOUND CONTAINING SAME AND METHOD FOR PRODUCTION THEREOF” (Chugai Seiyaku Kabushiki Kaisha, priority 2018, published 2023)
*1 amine or outer side, *2 acyl side, *3 side chain or, on linkers, in order; H or OH if unused. Where a SMILES comes first, the peptide text is derived from it. Bridges are numbered along the chain shown (N, C = ends). [ ]: non-standard residue; d: D form. The star is where a group is joined. ξ: configuration not given here. X5 = O=C([C@H](CCC[C@@H]1CC(F)(F)CN1)N[*:1])[*:2]; X12 = O=C([C@H](CCCC(O)C(F)(F)F)N[*:1])[*:2]; X13 = O=C(C1CCCCC1)[C@H](CC(=O)[*:2])N[*:1]; Pro(4,4-F2)ψ(CH2) = FC1(F)CN[C@H](C*)C1; NMeF = CN[C@@H](Cc1ccccc1)C(=O)O; NMeGABA = CN(CCCC(=O)[*:2])[*:1]; CH2CH(OH)CF3 = OC(C*)C(F)(F)F; NMeL = CN[C@@H](CC(C)C)C(=O)O; ξIle = CC[C@H](C)C(N)C(=O)O; NMeAbu = CC[C@H](NC)C(=O)O; NMeA = CN[C@@H](C)C(=O)O; Piperidide = C1CCN(*)CC1; NBuGly = CCCCNCC(=O)O; Sar = CNCC(=O)O; tBu = CC(C)(C)*

assay: Membrane permeability test of cyclic peptides (Caco-2, modified/improved method of WO 2018/124162); settings: human, Caco-2, Caco-2 (membrane permeability), Table 6, cyclic peptides containing Ser(1-CF3-EtOH) (C) or Hnl(7-F3-6-OH) (D)

Row | Structure (SMILES) | Papp [×10⁻⁶ cm/s]
1 | CC(C)C[C@H]1C(=O)N[C@@H](COC(C)(C)C)C(=O)N(C)[C@@H](Cc2ccccc2)C(=O)N(C)[C@@H](CC(C)C)C(=O)N[C@H](C(=O)C2CCCCC2)CC(=O)N[C@H](C(C)C)C(=O)N(C)[C@@H](Cc2ccccc2)C(=O)N[C@@H](COCC(O)C(F)(F)F)C(=O)N(C)[C@@H](CC(C)C)C(=O)N[C@@H](C(C)C)C(=O)N(C)CC(=O)N1C (stereo partly drawn) [Compound D11] (cyclo([NMeF][NMeL][X13][dV][NMeF]S(CH2CH(OH)CF3)[NMeL]V[Sar][NMeL]S(tBu))) | 0.21
2 | CC[C@H](C)[C@@H]1NC(=O)[C@H](CC(C)C)N(C)C(=O)[C@H](COC(C)(C)C)NC(=O)[C@H](Cc2ccccc2)N(C)C(=O)[C@H](Cc2ccccc2)N(C)C(=O)[C@H](CCCC(O)C(F)(F)F)NC(=O)[C@H](CC)N(C)C(=O)CCCN(C)C(=O)C[C@@H](C(=O)N2CCCCC2)NC(=O)[C@H](CC(C)C)N(C)C(=O)[C@H](CC(C)C)N(C)C1=O (stereo partly drawn) [Compound D13] ([NMeGABA][NMeAbu][X12][NMeF][NMeF]S(tBu)[NMeL]I[NMeL][NMeL]D-Piperidide; lactam N-11) | 0.14

same assay, conditions: human, Caco-2, Caco-2 (membrane permeability), Table 10, cyclic peptides containing Ser(S-4-F2-Pyrro-Me) (G) or Nva(2-R-4-F2-Pyrro) (H)

Row | Structure (SMILES) | Papp [×10⁻⁶ cm/s]
3 | CC(C)C[C@H]1C(=O)N[C@@H](C(C)C)C(=O)N(C)[C@@H](Cc2ccccc2)C(=O)N(C)[C@@H](C)C(=O)N[C@@H](COC(C)(C)C)C(=O)N(C)[C@@H](CC(C)C)C(=O)N[C@@H](CCC[C@@H]2CC(F)(F)CN2)C(=O)N(C)[C@@H](CC(C)C)C(=O)N(C)[C@@H](CC(C)C)C(=O)N[C@H](C(=O)N2CCCCC2)CC(=O)N(C)CCCC(=O)N1C [Compound H09] ([NMeGABA][NMeL]V[NMeF][NMeA]S(tBu)[NMeL][X5][NMeL][NMeL]D-Piperidide; lactam N-11) | 0.52
4 | CCCCN1CC(=O)N(C)[C@@H](Cc2ccccc2)C(=O)N(C)[C@@H](CC(C)C)C(=O)N[C@@H](CC(C)C)C(=O)N(C)[C@@H](CC(C)C)C(=O)N[C@H](C(=O)N2CCCCC2)CC(=O)N(C)CC(=O)N(C)[C@@H](C)C(=O)N[C@@H](C(C)C)C(=O)N(C)[C@@H](CC)C(=O)N[C@@H](CCC[C@@H]2CC(F)(F)CN2)C1=O [Compound H11] ([Sar][NMeA]V[NMeAbu][X5][NBuGly][NMeF][NMeL]L[NMeL]D-Piperidide; lactam N-11) | 2
5 | CC(C)C[C@@H]1NC(=O)[C@H](C)N(C)C(=O)C[C@@H](C(=O)N2CCCCC2)NC(=O)[C@H](CC(C)C)N(C)C(=O)CN(C)C(=O)[C@H](CCC[C@@H]2CC(F)(F)CN2)NC(=O)[C@H](CC(C)C)N(C)C(=O)[C@H](CC(C)C)N(C)C(=O)[C@H](CC(C)C)NC(=O)[C@H](Cc2ccccc2)N(C)C(=O)[C@H](C)N(C)C1=O [Compound H10] ([NMeA]L[NMeA][NMeF]L[NMeL][NMeL][X5][Sar][NMeL]D-Piperidide; lactam N-11) | 0.43
6 | CC[C@H]1C(=O)N[C@@H](COC(C)(C)C)C(=O)N(C)[C@@H](CC(C)C)C(=O)N[C@@H](COC[C@@H]2CC(F)(F)CN2)C(=O)N(C)[C@@H](CC(C)C)C(=O)N(C)[C@@H](CC(C)C)C(=O)N[C@H](C(=O)N2CCCCC2)CC(=O)N(C)CCCC(=O)N(C)[C@@H](CC(C)C)C(=O)N[C@@H](C(C)C)C(=O)N(C)[C@@H](Cc2ccccc2)C(=O)N1C [Compound G09] ([NMeGABA][NMeL]V[NMeF][NMeAbu]S(tBu)[NMeL]S(Pro(4,4-F2)ψ(CH2))[NMeL][NMeL]D-Piperidide; lactam N-11) | 1.2
7 | CCCCN1CC(=O)N(C)[C@@H](Cc2ccccc2)C(=O)N(C)[C@@H](CC(C)C)C(=O)N[C@@H](CC(C)C)C(=O)N(C)[C@@H](CC(C)C)C(=O)N[C@H](C(=O)N2CCCCC2)CC(=O)N(C)CC(=O)N(C)[C@@H](CC)C(=O)N[C@@H](C(C)C)C(=O)N(C)[C@@H](CC)C(=O)N[C@@H](COC[C@@H]2CC(F)(F)CN2)C1=O [Compound G11] ([Sar][NMeAbu]V[NMeAbu]S(Pro(4,4-F2)ψ(CH2))[NBuGly][NMeF][NMeL]L[NMeL]D-Piperidide; lactam N-11) | 1.5
8 | CCCCN1CC(=O)N(C)[C@@H](Cc2ccccc2)C(=O)N(C)[C@@H](CC(C)C)C(=O)N[C@@H](COC[C@@H]2CC(F)(F)CN2)C(=O)N(C)[C@@H](CC(C)C)C(=O)N[C@H](C(=O)N2CCCCC2)CC(=O)N(C)CC(=O)N(C)[C@@H](CC(C)C)C(=O)NC([C@@H](C)CC)C(=O)N(C)[C@@H](CC(C)C)C(=O)N[C@@H]([C@@H](C)O)C1=O (stereo partly drawn) [Compound G07] ([Sar][NMeL][ξIle][NMeL]T[NBuGly][NMeF][NMeL]S(Pro(4,4-F2)ψ(CH2))[NMeL]D-Piperidide; lactam N-11) | 0.57
9 | CC(C)C[C@H]1C(=O)N[C@@H](C(C)C)C(=O)N(C)[C@@H](Cc2ccccc2)C(=O)N(C)[C@@H](CC(C)C)C(=O)N[C@@H](CCC[C@@H]2CC(F)(F)CN2)C(=O)N(C)[C@@H](CC(C)C)C(=O)N[C@@H]([C@@H](C)O)C(=O)N(C)[C@@H](CC(C)C)C(=O)N(C)[C@@H](CC(C)C)C(=O)N[C@H](C(=O)N2CCCCC2)CC(=O)N(C)CCCC(=O)N1C [Compound H03] ([NMeGABA][NMeL]V[NMeF][NMeL][X5][NMeL]T[NMeL][NMeL]D-Piperidide; lactam N-11) | < 0.18
